Data taken from US20100099564A1, “HERBICIDE COMBINATION COMPRISING DIMETHOXYTRIAZINYL-SUBSTITUTED DIFLUOROMETHANESULFONYLANILIDES” (BAYER CROPSCIENCE AG, priority 2008, published 2010).
One block for each compound: values may come before it.

Key:
Type in all cases: in vivo
[1] = tested on: Stellaria media (STEME); experiment: Post-emergence action, greenhouse pot test, visual scoring: STEME; settings: 10 DAT
Description: (§1) Seeds or rhizome pieces of mono- and dicotyledonous harmful and useful plants were placed in peat pots (diameter 4 cm) filled with sandy loam and then covered with soil. The pots were kept in a greenhouse under optimum conditions. In addition, harmful plants encountered in paddy rice cultivation were cultivated in pots with a water level 2 cm above the soil surface.
(§2) About three weeks after the start of the cultivation, the test plants were treated at the 2- to 3-leaf stage. The herbicides, formulated as powder or liquid concentrates, were, either alone or in the combinations according to the invention, sprayed in various dosages on to the green parts of the plants using an application rate of 600 l of water/ha (converted). For further cultivation of the plants, the pots were then again kept under optimum conditions in a greenhouse.
(§3) The visual scoring of the herbicidal effects was carried out in intervals up to 21 days after the treatment. Scoring was carried out in percent in comparison to the untreated control plants. 0%=no herbicidal activity, 100%=complete herbicidal activity=complete kill.
(§4) The percentages from the treatments with the herbicides alone (=individual application) and with the combinations according to the invention (=mixtures) were employed to calculate interactions using the method of Colby. When the observed efficacies of the mixtures exceed the formal sum of the values of the tests with individual applications, they also exceed the expected value according to Colby, which is calculated using the formula below (cf. S. R. Colby; in Weeds 15 (1967) pp. 20 to 22):
(§5) Here: • A, B=activity of components A and B in percent at a dosage of a and b g of ai/ha (=gramm of active substance per hectare), respectively. • E=expected value in % at a dosage of a+b g of ai/ha.
(§6) The combinations according to the invention of herbicides from group (A) with herbicides from group (B) were tested on a broad spectrum of important harmful plants (weed grasses, broad-leaved weeds/Cyperaceae) and useful plants: Triticum aestivum (TRZAS), Stellaria media (STEME), Lolium multiflorum (LOLMU), Veronica persica (VERPE), Alopecurus myosuroides (ALOMY), Matricaria inodora (MATIN), Brassica napus (BRSNW), Viola tricolor (VIOTR), Avena fatua (AVEFA), Amaranthus retroflexus (AMARE), Zea mays (ZEAMX), Pharbitis purpurea (PHBPU), Setaria viridis (SETVI), Fallopia (ex Polygonum) convolvulus (POLCO), Echinochloa crusgaffi (ECHCG), Abuthilon theophrasti (ABUTH), Cyperus esculentus (CYPES), Oryza sativa (ORYSA).
(§7) Of particular interest are the results shown in the tables (Tab.) below, where the following key is used: • (1) EPPO code (former Bayer code) for the treated plant (see above) • (2) Time of scoring: DAT (days after treatment) • (3) Component A tested (identifying number) • (4) Component B tested (identifying number) • (5) Dosage component A [g of ai/ha] • (6) Dosage component B [g of ai/ha] • (7) % activity found • (8) E value (calculated according to Colby; see above) • (9) Comments: “SYNERGY” =synergistic interaction (E value<% activity found); “SAFENING”=safener action on useful plant (E value>% activity found)

[2] = tested on: Lolium multiflorum (LOLMU); experiment: Post-emergence action, greenhouse pot test, visual scoring: LOLMU; settings: for (7) % activity found: 21 DAT
Description: as §1, §2, §3, §4, §5, §6, §7

[3] = tested on: Veronica persica (VERPE); experiment: Post-emergence action, greenhouse pot test, visual scoring: VERPE
Description: as §1, §2, §3, §4, §5, §6, §7

[4] = tested on: Matricaria inodora (MATIN); experiment: Post-emergence action, greenhouse pot test, visual scoring: MATIN
Description: as §1, §2, §3, §4, §5

[5] = tested on: Avena fatua (AVEFA); experiment: Post-emergence action, greenhouse pot test, visual scoring: AVEFA; settings: 21 DAT
Description: as §1, §2, §3, §4, §5, §6, §7

[6] = tested on: Amaranthus retroflexus (AMARE); experiment: Post-emergence action, greenhouse pot test, visual scoring: AMARE
Description: as §1, §2, §3, §4, §5

[7] = tested on: Pharbitis purpurea (PHBPU); experiment: Post-emergence action, greenhouse pot test, visual scoring: PHBPU
Description: as §1, §2, §3, §4, §5, §6, §7

[8] = tested on: Fallopia (ex Polygonum) convolvulus (POLCO); experiment: Post-emergence action, greenhouse pot test, visual scoring: POLCO; settings: 21 DAT
Description: as §1, §2, §3, §4, §5, §6, §7

[9] = tested on: Echinochloa crusgaffi (ECHCG); experiment: Post-emergence action, greenhouse pot test, visual scoring: ECHCG; settings: for % activity found: 21 DAT
Description: as §1, §2, §3, §4, §5, §6, §7

[10] = tested on: Abuthilon theophrasti (ABUTH); experiment: Post-emergence action, greenhouse pot test, visual scoring: ABUTH
Description: as §1, §2, §3, §4, §5, §6, §7

[11] = tested on: Triticum aestivum (TRZAS); experiment: Post-emergence action, greenhouse pot test, visual scoring: TRZAS
Description: as §1, §2, §3, §4, §5, §6, §7

[12] = tested on: Alopecurus myosuroides (ALOMY); experiment: Post-emergence action, greenhouse pot test, visual scoring: ALOMY; settings: 21 DAT
Description: as §1, §2, §3, §4, §5

[13] = tested on: Viola tricolor (VIOTR); experiment: Post-emergence action, greenhouse pot test, visual scoring: VIOTR; settings: rate (5) 4
Description: as §1, §2, §3, §4, §5, §6, §7

[14] = tested on: Zea mays (ZEAMX); experiment: Post-emergence action, greenhouse pot test, visual scoring: ZEAMX
Description: as §1, §2, §3, §4, §5, §6, §7

[15] = tested on: Setaria viridis (SETVI); experiment: Post-emergence action, greenhouse pot test, visual scoring: SETVI; settings: 21 DAT
Description: as §1, §2, §3, §4, §5, §6, §7

[16] = tested on: Cyperus esculentus (CYPES); experiment: Post-emergence action, greenhouse pot test, visual scoring: CYPES
Description: as §1, §2, §3, §4, §5

[17] = tested on: Oryza sativa (ORYSA); experiment: Post-emergence action, greenhouse pot test, visual scoring: ORYSA
Description: as §1, §2, §3, §4, §5, §6, §7

SMILES: CCSC(=O)N1CCCCCC1 [B6-7, S-ethyl hexahydro-1H-azepine-1-carbothioate]
% activity found ([1]; dose (6) 300): 0%
% activity found ([1]; dose (6) 900): 0%
% activity found ([2]; 10 DAT, dose (6) 900): 20%
% activity found ([3]; 10 DAT, dose (6) 900): 0%
% activity found ([3]; 21 DAT, dose (6) 300): 0%
% activity found ([4]; 10 DAT, dose (6) 900): 20%
% activity found ([4]; 21 DAT, dose (6) 300): 30%
% activity found ([4]; 21 DAT, dose (6) 900): 30%
% activity found ([5]; dose (6) 300): 0%
% activity found ([6]; 10 DAT, dose (6) 300): 0%
% activity found ([6]; 10 DAT, dose (6) 900): 0%
% activity found ([6]; 21 DAT, dose (6) 300): 0%
% activity found ([6]; 21 DAT, dose (6) 900): 0%
% activity found ([7]; 10 DAT, dose (6) 300): 0%
% activity found ([7]; 10 DAT, dose (6) 900): 0%
% activity found ([7]; 21 DAT, dose (6) 300): 0%
% activity found ([7]; 21 DAT, dose (6) 900): 0%
% activity found ([8]; dose (6) 300): 0%
% activity found ([8]; dose (6) 900): 0%
% activity found ([9]; dose (6) 300): 0%
% activity found ([9]; dose (6) 900): 0%
% activity found ([10]; 10 DAT, dose (6) 300): 0%
% activity found ([10]; 10 DAT, dose (6) 900): 0%

(7) % activity found ([17]; 10 DAT, rate (5) 4): 10%
(7) % activity found ([17]; 10 DAT, rate (5) 12): 10%
(7) % activity found ([17]; 21 DAT, rate (5) 4): 0%
(7) % activity found ([17]; 21 DAT, rate (5) 12): 10%
SMILES: COc1nc(OC)nc(C(=O)c2cccc(F)c2N(C)S(=O)(=O)C(F)F)n1 [A-1]
(7) % activity found ([11]; 10 DAT, rate (5) 4): 0%
(7) % activity found ([11]; 10 DAT, rate (5) 12): 0%
(7) % activity found ([11]; 21 DAT, rate (5) 4): 0%
(7) % activity found ([11]; 21 DAT, rate (5) 12): 0%
% activity found ([1]; dose (5) 4): 70%
% activity found ([1]; dose (5) 12): 70%
(7) % activity found ([2]; rate (5) 4): 0%
(7) % activity found ([2]; rate (5) 12): 10%
(7) % activity found ([3]; 21 DAT, rate (5) 4): 30%
(7) % activity found ([3]; 21 DAT, rate (5) 12): 40%
(7) % activity found ([12]; rate (5) 4): 40%
(7) % activity found ([12]; rate (5) 12): 50%
% activity found ([4]; 10 DAT, A 12 g of ai/ha): 70%
(7) % activity found ([13]; 10 DAT): 20%
(7) % activity found ([13]; 21 DAT): 0%
(7) % activity found ([5]; rate (5) 4): 10%
(7) % activity found ([5]; rate (5) 12): 30%
(7) % activity found ([14]; 10 DAT, rate (5) 4): 0%
(7) % activity found ([14]; 10 DAT, rate (5) 12): 0%
(7) % activity found ([14]; 21 DAT, rate (5) 12): 0%
% activity found ([7]; 10 DAT, dose (5) 4): 60%
% activity found ([7]; 21 DAT, dose (5) 4): 60%
(7) % activity found ([7]; 21 DAT, rate (5) 12): 65%
(7) % activity found ([15]; rate (5) 4): 0%
(7) % activity found ([15]; rate (5) 12): 20%
(7) % activity found ([8]; rate (5) 4): 75%
(7) % activity found ([8]; rate (5) 12): 70%
(7) % activity found ([9]; 10 DAT, rate (5) 12): 70%
% activity found ([9]; dose (5) 4): 85%
% activity found ([10]; 21 DAT, dose (5) 4): 85%
% activity found ([10]; 21 DAT, dose (5) 12): 85%
(7) % activity found ([16]; 10 DAT, rate (5) 4): 70%
(7) % activity found ([16]; 10 DAT, rate (5) 12): 70%
(7) % activity found ([16]; 21 DAT, rate (5) 4): 80%
(7) % activity found ([16]; 21 DAT, rate (5) 12): 80%
